Cc1nc(-c2ccc(OCC(C)C)c(C#N)c2)sc1C(=O)O
solubility (mole fraction) (in acetone, 293.15 K): 0.00623 | solubility (mole fraction) (in acetone, 298.15 K): 0.00743 | solubility (mole fraction) (in acetone, 303.15 K): 0.00921 | solubility (mole fraction) (in acetone, 308.15 K): 0.0107 | solubility (mole fraction) (in acetone, 313.15 K): 0.0129 | solubility (mole fraction) (in acetone, 318.15 K): 0.0147 | solubility (mole fraction) (in acetone, 323.15 K): 0.0162 | solubility (mole fraction) (in acetone, 328.15 K): 0.0171 | solubility (mole fraction) (in ethanol, 293.15 K): 0.00122 | solubility (mole fraction) (in ethanol, 298.15 K): 0.00177 | solubility (mole fraction) (in ethanol, 303.15 K): 0.00269 | solubility (mole fraction) (in ethanol, 308.15 K): 0.00401 | solubility (mole fraction) (in ethanol, 313.15 K): 0.00584 | solubility (mole fraction) (in ethanol, 318.15 K): 0.00836 | solubility (mole fraction) (in ethanol, 323.15 K): 0.0109 | solubility (mole fraction) (in ethanol, 328.15 K): 0.0143 | solubility (mole fraction) (in ethyl acetate, 293.15 K): 0.00376 | solubility (mole fraction) (in ethyl acetate, 298.15 K): 0.00456 | solubility (mole fraction) (in ethyl acetate, 303.15 K): 0.00516 | solubility (mole fraction) (in ethyl acetate, 308.15 K): 0.00643 | solubility (mole fraction) (in ethyl acetate, 313.15 K): 0.00732 | solubility (mole fraction) (in ethyl acetate, 318.15 K): 0.00828 | solubility (mole fraction) (in ethyl acetate, 323.15 K): 0.00975 | solubility (mole fraction) (in ethyl acetate, 328.15 K): 0.0114 | solubility (mole fraction) (in methanol, 293.15 K): 0.000524 | solubility (mole fraction) (in methanol, 298.15 K): 0.000856 | solubility (mole fraction) (in methanol, 303.15 K): 0.00117 | solubility (mole fraction) (in methanol, 308.15 K): 0.00162 | solubility (mole fraction) (in methanol, 313.15 K): 0.00229 | solubility (mole fraction) (in methanol, 318.15 K): 0.00325 | solubility (mole fraction) (in methanol, 323.15 K): 0.0045 | solubility (mole fraction) (in methanol, 328.15 K): 0.00685
